US20070161551A1, “Methods and compositions for the treatment of lipodystrophy” (priority 2004, published 2007)
Read-outs that look alike come from different tables or passages of the source.

Legend:
ob/ob mice = details: daily injections, cited from earlier work
normal mice = details: cited from earlier work
patients with HADDS = details: cited from earlier work
[1] = tested on: AIDS patients that manifest symptoms of HADDS; assay: Combined rhGH (SEROSTIM) plus statin therapy in AIDS patients with HADDS symptoms; type: in vivo, human; details: after 3 months; combined therapy versus rhGH alone or statin alone
Protocol: AIDS patients with a history of long-term use (an average of 12 months) of HAART that manifest symptoms of HADDS, including buffalo humps, central adiposity and peripheral muscle wasting associated with fatigue, along with elevated levels of plasma triglycerides and/or cholesterol are selected for the study. Therapy with rhGH (SEROSTIM®) is initiated in all patients at a dose of e.g., 4 mg/day subcutaneously (other concentrations, e.g., 6 mg/day could be used). At the same time, the patients are treated with a statin in a dosage amount of 40 mg/day, which is administered orally. This dosage amount is based on the average dose of statin drugs commonly administered for antilipemic purposes. The patients are maintained on this […] for three months and monitored every two weeks for improvements of fat maldistribution. In parallel therapies, patients are treated with just rhGH and just statin.

[2] = tested on: HIV/AIDS wasting patients; details: cited from earlier work
patients with HIV/AIDS = details: cited from earlier work; for insulin-like growth factor-I (IGF-I) levels: during treatment
[3] = tested on: patients with overt AIDS wasting; details: cited from earlier work
[4] = at 12 weeks, not deemed clinically significant (Engleson et al. 1999)
[5] = rhGH 4 to 6 mg/day, by four months (Torres 1999)

leptin: protein hormone of approximately 16 kDa encoded by the obese (ob) gene; recombinant mouse or human leptin
food intake (ob/ob mice; within a few days): dramatic reduction
reduction in body weight (ob/ob mice; within a month): ~50%
adipose tissue (normal mice; mouse, in vivo): profound depletion of adipose tissue
body weight (normal mice; mouse, in vivo): lose weight
lean mass (normal mice; mouse, in vivo): increases in lean mass
lipolysis in adipose tissue (normal mice; no apparent effect on lean tissue, species not stated): promotes lipolysis

rhGH: Recombinant human growth hormone, rhGH, produced by Serono S. A. as SEROSTIM®
visceral adiposity (patients with HADDS; Engleson et al. 1999, Mauss et al. 1998): reduce
solitary lipomas (patients with HADDS; Milano et al. 1999): reduce
buffalo hump (patients with HADDS; Torres 1998, 1999): reduce
abdominal girth (patients with HADDS; Wanke et al. 1999): reduce
HDL cholesterol and glucose (patients with HADDS; [4]): increased
total cholesterol and fasting triglycerides (patients with HADDS; [4]): dropped significantly
collective side effects of rhGH administration (patients with HADDS; human, in vivo): swelling of the fingers or paresthesia due to tissue turgor, a few transient elevations of fasting glucose and triglycerides
lean body mass and body cell mass (patients with HADDS; quantified by bioelectrical impedance analysis): increased
change in peripheral lipodystrophy (patients with HADDS; [5]): no change
increase in fat free mass (patients with HADDS; [5]): 5 to 10%
size and firmness of buffalo humps (patients with HADDS; [5]): significantly reduces
truncal adiposity (patients with HADDS; [5]): reduces
changes in body weight, total body fat, or blood lipids (patients with HADDS; rhGH 4 to 6 mg/day, during the treatment period (Torres 1999)): no significant or consistent changes
abnormally accumulated fat, compared to baseline (patients with HADDS; s.c., 3 to 6 mg per day for 12 to 24 weeks): significantly reduces
improvement in fat maldistribution [1]: do not experience as dramatic an improvement
effectiveness of a three-month course of therapy ([2]; over 10,000 HIV/AIDS wasting patients since 1996): effective in the majority of patients
insulin-like growth factor-I (IGF-I) levels (patients with HIV/AIDS; 2.5 mg qod): no significant change
insulin-like growth factor-I (IGF-I) levels (patients with HIV/AIDS; 5.0 mg qod): increased significantly
lean body mass and weight ([3]; 0.1 mg/kg/day, 12 weeks, compared to placebo): significant increases
tolerability of relatively high doses ([3]; 6 mg/day s.c., many patients with overt AIDS wasting): without developing adverse effects that require dose reduction or cessation of therapy

hGH: Human growth hormone, single polypeptide chain of 191 amino acids having two disulfide bonds
safety of supraphysiologic doses ([2]; in vivo, sc): safely administered
weight loss preceding the study (patients with HIV/AIDS; 5.0 mg qod, four patients who completed the study): reversed
